# Measurements reported in article PMC10132981, “Formate overflow drives toxic folate trapping in MTHFD1 inhibited cancer cells” (Nature Metabolism, 2023).
# Read-outs that look alike come from different tables or passages of the source.
# Columns and labels:
# Assay in all cases: cells
# [1] = tested on: HCT116; parameters: species or system SW620, SW620 MTHFD2-/-, PA-TU-8988T; Resazurin cell viability dose-response in 384-well plates, fluorescence at 595 nm, logistic fit; details: Homo sapiens, HCT-116, 96 h, Figure 1=Extended Data Fig. 2a; C=RPMI+GlutaMAX (10% FBS, 1% P/S); D=Vehicle; 96 h viability, no metabolite rescue (vehicle); read-out: EC50 compound
# [2] = tested on: SW620; parameters: species or system SW620 MTHFD2-/-, HCT116, PA-TU-8988T; Resazurin cell viability dose-response in 384-well plates, fluorescence at 595 nm, logistic fit; details: Homo sapiens, SW-620, 96 h, D=Vehicle, 96 h viability, no metabolite rescue (vehicle), read-out: EC50 compound
# [3] = tested on: SW620 WT; parameters: species or system SW620 MTHFD2-/-, HCT116, PA-TU-8988T; Resazurin cell viability dose-response in 384-well plates, fluorescence at 595 nm, logistic fit; details: Homo sapiens, SW-620, 96 h, D=Vehicle, 96 h viability, no metabolite rescue (vehicle), read-out: EC50 compound
# [4] = tested on: SW620 MTHFD2-/-; parameters: species or system HCT116, PA-TU-8988T; Resazurin cell viability dose-response in 384-well plates, fluorescence at 595 nm, logistic fit; details: Homo sapiens, SW-620, 96 h, C=RPMI+GlutaMAX (5% dFBS, 1% P/S), D=Vehicle, 96 h viability, no metabolite rescue (vehicle), read-out: EC50 compound
# [5] = tested on: SW620 MTHFD2 -/-; parameters: species or system HCT116, PA-TU-8988T; Resazurin cell viability dose-response in 384-well plates, fluorescence at 595 nm, logistic fit; details: Homo sapiens, SW-620, 96 h, C=RPMI+GlutaMAX (5% dFBS, 1% P/S), D=Vehicle, 96 h viability, no metabolite rescue (vehicle), read-out: EC50 compound
# [6] = tested on: PA-TU-8988T; parameters: species or system SW620, SW620 MTHFD2-/-, HCT116; Resazurin cell viability dose-response in 384-well plates, fluorescence at 595 nm, logistic fit; details: Homo sapiens, PaTu 8988t, 96 h, Figure 1=Extended Data Fig. 3e; C=DMEM+GlutaMAX (5% dFBS, 1% P/S); D=Vehicle; 96 h viability, no metabolite rescue (vehicle); read-out: EC50 compound
# [7] = Figure 1=Extended Data Fig. 2b, C=RPMI+GlutaMAX (10% FBS, 1% P/S)
# [8] = Figure 1=Extended Data Fig. 2c, C=RPMI+GlutaMAX (10% FBS, 1% P/S)
# [9] = Figure 1=Extended Data Fig. 3b, C=RPMI+GlutaMAX (5% dFBS, 1% P/S)
# [10] = C=RPMI+GlutaMAX (5% FBS, 1% P/S)
# [11] = Figure 1=Extended Data Fig. 3c, C=RPMI+GlutaMAX (5% dFBS, 1% P/S)
smiles,measurement,setting,value
O=c1[nH]cc(F)c(=O)[nH]1 [5-FU],EC50,[1],2140 nM
same,EC50,"[2]; Figure 1=2f, C=RPMI+GlutaMAX (10% FBS, 1% P/S)",5350 nM
same,EC50,[2]; [7],5170 nM
same,EC50,[2]; [8],4630 nM
Cc1c(N2CCN(C)[C@@H](C)C2)ccc2c3c(c(=O)oc12)CN(C(=O)c1ccc(NS(C)(=O)=O)c(OC(F)(F)F)c1)CC3 [DS18561882],EC50,"[3]; Figure 1=3k, C=RPMI+GlutaMAX (5% dFBS, 1% P/S)",954 nM
same,EC50,[3]; [9],772 nM
same,EC50,[2]; [10],> 10000 nM
same,EC50,"[2]; Figure 1=1d, C=RPMI+GlutaMAX (10% FBS, 1% P/S)",491 nM
same,EC50,"[2]; Figure 1=3d, C=RPMI+GlutaMAX (5% dFBS, 1% P/S)",954 nM
same,EC50,"[2]; Figure 1=Extended Data Fig.5d, C=RPMI+GlutaMAX (5% dFBS, 1% P/S)",320 nM
same,EC50,[4]; Figure 1=6f,162 nM
same,EC50,[5]; Figure 1=3o,551 nM
same,EC50,[5]; Figure 1=Extended Data Fig. 3d,57.4 nM
CN(Cc1cnc2nc(N)nc(N)c2n1)c1ccc(C(=O)N[C@@H](CCC(=O)O)C(=O)O)cc1 [MTX],EC50,"[3]; Figure 1=3j, C=RPMI+GlutaMAX (5% dFBS, 1% P/S)",6.36 nM
same,EC50,"[3]; Figure 1=6k, C=RPMI+GlutaMAX (5% dFBS, 1% P/S)",5.99 nM
same,EC50,[3]; [9],7.33 nM
same,EC50,[3]; [11],6.52 nM
same,EC50,[6],30.8 nM
same,EC50,[1],9.48 nM
same,EC50,"[2]; C=HPLM (5% dFBS, 1% P/S)",27 nM
same,EC50,[2]; [10],12.3 nM
same,EC50,"[2]; Figure 1=2e, C=RPMI+GlutaMAX (10% FBS, 1% P/S)",17 nM
same,EC50,"[2]; Figure 1=3c, C=RPMI+GlutaMAX (5% dFBS, 1% P/S)",7.12 nM
same,EC50,[2]; [7],9.21 nM
same,EC50,[2]; [8],9.96 nM
same,EC50,"[2]; Figure 1=Extended Data Fig.5c, C=RPMI+GlutaMAX (5% dFBS, 1% P/S)",10.6 nM
same,EC50,[4]; Figure 1=6e,1.21 nM
same,EC50,[5]; Figure 1=3n,1.07 nM
same,EC50,[5]; Figure 1=Extended Data Fig. 3d,5.09 nM
Cc1[nH]nc2c1C(c1cc(CO)cc(-c3ccccc3)c1)(C(C)C)C(C#N)=C(N)O2 (stereo not drawn) [SHIN1],EC50,"[2]; Figure 1=1e, C=RPMI+GlutaMAX (10% FBS, 1% P/S)",1600 nM
same,EC50,[4]; Figure 1=6g,2.35 nM
Nc1nc(N)c(CC(=O)Nc2cnc(C(=O)N[C@@H](CCC(=O)O)C(=O)O)c(F)c2)c(=O)[nH]1 [TH9619],EC50,"[3]; Figure 1=6i, C=RPMI+GlutaMAX (5% dFBS, 1% P/S)",1420 nM
same,EC50,"[3]; Figure 1=3h, C=RPMI+GlutaMAX (5% dFBS, 1% P/S)",993 nM
same,EC50,[3]; [9],562 nM
same,EC50,[3]; [11],694 nM
same,EC50,"[3]; Figure 1=Extended Data Fig. 3f, C=RPMI+GlutaMAX (5% dFBS, 1% P/S, 10 uM Hypoxanthine)",16.9 nM
same,EC50,[6],22.2 nM
same,EC50,[1],52.4 nM
same,EC50,"[2]; C=HPLM (5% dFBS, 1% P/S)",11.3 nM
same,EC50,[2]; [10],24.9 nM
same,EC50,"[2]; Figure 1=1b, C=RPMI+GlutaMAX (10% FBS, 1% P/S)",20.6 nM
same,EC50,"[2]; Figure 1=3a, C=RPMI+GlutaMAX (5% dFBS, 1% P/S)",603 nM
same,EC50,[2]; [7],27.8 nM
same,EC50,[2]; [8],21.9 nM
same,EC50,"[2]; Figure 1=Extended Data Fig. 5j, C=RPMI+GlutaMAX (5% dFBS, 1% P/S)",258 nM
same,EC50,"[2]; Figure 1=Extended Data Fig.5a, C=RPMI+GlutaMAX (5% dFBS, 1% P/S)",572 nM
same,EC50,"[2]; Figure 1=Extended Data Fig.5f, C=RPMI+GlutaMAX (5% dFBS, 1% P/S)",439 nM
same,EC50,"[2]; Figure 1=Extended Data Fig.5h, C=RPMI+GlutaMAX (5% dFBS, 1% P/S)",239 nM
same,EC50,[4]; Figure 1=6c,1.24 nM
same,EC50,[5]; Figure 1=3l,0.626 nM
same,EC50,[5]; Figure 1=Extended Data Fig. 3d,1.71 nM
